Data as given in patent US4780412A, “Fibrinolytic enzymes produced from established non-cancerous cell lines” (priority 1982, dated 1988).
Counter-ions that a name gives are not always drawn. Square brackets hold non-standard residues; d marks the D form. Peptide text beside a SMILES is read from it. * marks the point of attachment. pNA = O=[N+]([O-])c1ccc(N*)cc1; Bz = O=C(c1ccccc1)*

Tests used:
[1] = biological target: T1, GPK derived enzyme (from cell line GPK, CNCMI-222) (Cavia porcellus, UniProt H0W0Z7); experiment: Inhibition of GPK-derived enzyme activity by 2-mercaptoethanol (fibrin plate, fibrin clot lysis time); format: biochemical; settings: 2-mercaptoethanol at 10 mM or above, incubated 15 min at 37° C., pH 7.8; residual activity on plasminogen containing fibrin plate and by clot lysis time
T1 construct: residual activity on plasminogen-containing fibrin plate
T1 sequence (H0W0Z7 33-559): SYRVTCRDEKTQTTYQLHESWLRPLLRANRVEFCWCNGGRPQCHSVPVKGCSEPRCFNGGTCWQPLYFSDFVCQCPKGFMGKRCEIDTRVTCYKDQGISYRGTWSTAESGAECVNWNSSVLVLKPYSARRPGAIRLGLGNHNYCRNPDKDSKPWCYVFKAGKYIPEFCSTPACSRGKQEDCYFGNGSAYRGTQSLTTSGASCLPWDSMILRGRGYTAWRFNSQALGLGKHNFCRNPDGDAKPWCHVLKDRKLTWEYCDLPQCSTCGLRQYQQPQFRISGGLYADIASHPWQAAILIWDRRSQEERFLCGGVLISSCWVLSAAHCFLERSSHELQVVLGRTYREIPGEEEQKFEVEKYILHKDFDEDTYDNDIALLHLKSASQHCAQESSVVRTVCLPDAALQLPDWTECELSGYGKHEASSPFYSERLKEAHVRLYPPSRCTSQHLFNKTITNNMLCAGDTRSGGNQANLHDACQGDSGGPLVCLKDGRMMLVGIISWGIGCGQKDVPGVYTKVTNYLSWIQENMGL
Experimental: Various dilutions of the stock solution of 2-mercaptoethanol were prepared in 0.05M sodium diethylbarbiturate buffer, pH 7.8 containing 0.01% Tween 80. GPK derived enzyme (25 μg/ml) was mixed with an equal volume of diluted 2-mercaptoethanol solution and the mixture incubated at 37° C. Control sample contained enzyme with an equal volume of buffer. After 15 min, 50 μl aliquot of the mixture was applied to plasminogen containing fibrin plate to assess the residual enzyme activity. The enzyme activity was also quantitated by fibrin clot lysis time method.

Thrombin = settings: values quoted in literature; cited from earlier work
[2] = biological target: T2, GPK derived enzyme, partially purified (fibrinolytic enzyme / plasminogen activator from cell line GPK, CNCMI-222) (Cavia porcellus, UniProt H0W0Z7); experiment: Amidolytic activity on chromogenic substrates (release of p-nitroaniline at 405 nm); format: biochemical
T2 construct: zinc chelate agarose, partially purified from culture supernatant
T2 sequence (H0W0Z7 33-559): as above
Experimental: The amidolytic activity of the GPK derived enzyme was determined using various chromogenic substrates. […] Z

[3] = biological target: Melanoma (malignant melanoma plasminogen activator, HEPA) (Homo sapiens, UniProt P00750); settings: values quoted in literature; cited from earlier work
Chain of Melanoma (malignant melanoma plasminogen activator, HEPA) (P00750 36-562): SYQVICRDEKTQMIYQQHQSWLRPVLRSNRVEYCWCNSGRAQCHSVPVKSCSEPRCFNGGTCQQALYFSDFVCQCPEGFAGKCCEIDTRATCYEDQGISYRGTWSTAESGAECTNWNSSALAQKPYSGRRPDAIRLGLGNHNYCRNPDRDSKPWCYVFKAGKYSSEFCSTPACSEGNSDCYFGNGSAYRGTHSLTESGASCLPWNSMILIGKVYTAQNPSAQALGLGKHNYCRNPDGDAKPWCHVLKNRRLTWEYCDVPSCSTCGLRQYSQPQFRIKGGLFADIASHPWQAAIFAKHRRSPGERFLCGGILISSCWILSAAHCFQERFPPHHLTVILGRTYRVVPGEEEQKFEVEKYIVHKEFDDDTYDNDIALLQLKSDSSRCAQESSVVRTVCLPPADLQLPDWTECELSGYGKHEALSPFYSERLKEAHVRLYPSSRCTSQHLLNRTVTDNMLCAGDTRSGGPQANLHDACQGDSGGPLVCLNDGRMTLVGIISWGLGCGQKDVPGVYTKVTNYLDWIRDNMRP

Urokinase = Urokinase (Homo sapiens, UniProt P00749); settings: values quoted in literature; cited from earlier work
Plasmin = settings: values quoted in literature; cited from earlier work

| SMILES | Km (Thrombin) [µM] | Vmax (Thrombin) | Km (Urokinase) [µM] | Vmax (Urokinase) | Km (Plasmin) [µM] | Vmax (Plasmin) | other results |
| --- | --- | --- | --- | --- | --- | --- | --- |
| OCCS [2-mercaptoethanol] | – | – | – | – | – | – | proportion of the enzyme activity inhibited [1]: > 80% |
| CC(C)[C@H](NC(=O)[C@H](Cc1ccccc1)NC(=O)c1ccccc1)C(=O)N[C@@H](CCCNC(=N)N)C(=O)Nc1ccc([N+](=O)[O-])cc1 [Benzoyl-Phe--Val--Arg--pNa.HCl] (Bz-Phe-Val-Arg-pNA) | 110 | 0.036 M/min/NIH.U | – | – | – | – | – |
| CC(C)[C@H](NC(=O)c1ccccc1)C(=O)NCC(=O)N[C@@H](CCCNC(=N)N)C(=O)Nc1ccc([N+](=O)[O-])cc1 [Benzoyl-Val--Gly--Arg--pNA.HCl] (Bz-Val-Gly-Arg-pNA) | – | – | – | – | – | – | Vmax ([2]; pH 9.0 (line above), ionic strength I 0.0035, substrate concentration by extinction): 1.4 M/min/M enzyme; Vmax ([2]; pH 9.0, ionic strength I 0.05, 0.05M Tris-HCl, 37° C.): 1.1 M/min/M enzyme; Km [3]: 1000 µM; Vmax [3]: 0.53 M/min/IU |
| N=C(N)NCCC[C@H](NC(=O)[C@H](CCC(=O)O)NC(=O)[C@@H](N)CCC(=O)O)C(=O)Nc1ccc([N+](=O)[O-])cc1 [Glu--Glu--Arg--pNA.HCl] (H-Glu-Glu-Arg-pNA) | – | – | 90 | 3.1 × 10^-4 M/min/PLOUG.U | – | – | – |
| CC[C@@H](C)[C@@H](N)C(=O)N1CCC[C@H]1C(=O)N[C@@H](CCCNC(=N)N)C(=O)Nc1ccc([N+](=O)[O-])cc1 [H--D--Ile--Pro--Arg--pNA.2HCl] (H-[dI]-Pro-Arg-pNA) | 3 | 0.1 M/min/U | 200 | 2 × 10^-4 M/min/U | 9000 | 5 m/min/U | – |
| CC(C)C[C@H](NC(=O)[C@H](N)C(C)C)C(=O)N[C@@H](CCCCN)C(=O)Nc1ccc([N+](=O)[O-])cc1 [H--D--Val--Leu--Lys--pNA.2HCl] (H-[dV]-Leu-Lys-pNA) | – | – | – | – | 300 | 0.5 M/min/CU | Vmax ([2]; pH 7.4, ionic strength I 0.006, 0.05M Tris-HCl, 37° C.): 27 M/min/M enzyme; Vmax ([2]; pH 7.4, ionic strength I 0.15, 0.05M Tris-HCl, 37° C.): 14.7 M/min/M enzyme; Vmax ([2]; pH 9.0, ionic strength I 0.15, 0.05M Tris-HCl, 37° C.): 4.08 M/min/M enzyme |
